Legend:
[1] = Draize-Ocular Irritation assessment; assay type: in vivo, Dutch-belted rabbits; conditions: topical I-2 solution formulations, during PK studies
[2] = Physical and chemical stability of I-2 solutions at room temperature; assay type: physicochemical; conditions: F127 (0.5%), 20 mM Tris (pH 8)
Protocol: Solutions of I-2 were formulated with F127 or Tween 80, and under a range of pH values. Briefly, I-2 was first completely solubilized using an acidic solution (0.1 N HCl) at a high concentration of ˜5% (wiv). The final formulation was diluted to a solution consisting of 0.5% (wiv) I-2 into buffered solution containing F127 or Tween 80 as described in Table 5. Following dilution, the pH of the formulations was measured using pH indicator strips (PEHANON) and confirmed to be within expected range (±0.5 units of target pH).
Physical and chemical stability of the solutions at room temperature (20-25° C.) were assessed after 7-10 days (tfinal). Physical instability in a solution can manifest as the precipitation and sedimentation of the drug of interest and excipients over time. To assess physical stability, the formulations at tfinal were first filtered through a 300 kDa modified polyethersulfone filter membrane (Nanosep) to remove any precipitate in the solution. The concentration of I-2 in the filtrates was then measured and compared to that at t=0. The purity of I-2 in the unfiltered solution was also evaluated at tfinal, to further confirm chemical stability. This parameter is defined by the area under the signal peak that is attributed to compound I-2 as a percentage of all peaks reported by in the sample by HPLC (% peak area).

## Cc1cc(C(=O)Nc2cc(Oc3ccc4nc(NC(=O)CN5CC[C@H](N(C)C)C5)cn4n3)ccc2C)n(C)n1 [Compound I-2]
[1]
  Draize-Ocular Irritation: no irritation
[2]
  physical stability of solution: major physical instability

From patent publication US10544151B2, “Compounds and uses thereof” (Kala Pharmaceuticals, Inc., priority 2013, dated 2020)
